Test results as given in ChEMBL document CHEMBL1122716, “cis-1,3,4,6,7,11b-Hexahydro-2-methyl-7-phenyl-2H-pyrazino[2,1-a] isoquinoline: a new atypical antidepressant” (J Med Chem, 1984).

Assay: Binding affinity towards histamine receptor by inhibiting specific binding of [3H]-mepyramine (3 nM) in vitro to membranes of rat brain without cerebellum
Assay type: cell membranes

Row | SMILES | IC50 [nM]
1 | CCCCN1CCN2CC(c3ccccc3)c3ccccc3C2C1 (cis isomer) | > 10000
2 | CNCC1NCC(c2ccccc2)c2ccccc21 (stereo in doubt; 4a) | 3500
3 | COc1ccc(C2CN3CCN(C)CC3c3ccccc32)cc1 (centres undefined) | 680
4 | CN1CCN2CC(c3ccc(N)cc3)c3ccccc3C2C1 (cis isomer) | 860
5 | CN1CCN2CC(c3ccc(O)cc3)c3ccccc3C2C1 (centres undefined) | 190
6 | CN(C)CC1c2ccccc2C(c2ccccc2)CN1C (cis isomer) | > 10000
7 | CCCN1CCN2CC(c3ccccc3)c3ccccc3C2C1 (cis isomer) | > 10000
8 | CN1CCN2CC(c3ccccc3)c3ccccc3C2C1 (trans isomer) | > 10000
9 | CN1CCN2c3ccccc3Cc3ccccc3C2C1 (centres undefined) [MIANSERIN] | 14
10 | CCCCCCN1CCN2CC(c3ccccc3)c3ccccc3C2C1 (centres undefined) | > 10000
11 | CNCC1NCC(c2ccccc2)c2ccccc21 (stereo in doubt; 5) | 170
12 | CN1CCN2CC(c3ccccc3)c3ccccc3C2C1 (single isomer, unassigned; (-)) | 40
13 | CN(C)CCCN1c2ccccc2CCc2ccccc21 [IMIPRAMINE] | 30
14 | CN1CCN2CC(c3ccc(Cl)cc3)c3ccccc3C2C1 (centres undefined) | 380
15 | c1ccc(CCN2CCN3CC(c4ccccc4)c4ccccc4C3C2)cc1 (centres undefined) | > 10000
16 | CN1CCN2CC(c3ccccc3)c3ccccc3C2C1 (stereo in doubt; 10) | 2800
17 | CN(C)CC1NCC(c2ccccc2)c2ccccc21 (centres undefined) | 2000
18 | CN1CCN2CC(c3ccccc3)c3ccccc3C2C1 (stereo in doubt; 7a) | 60
19 | c1ccc(C2CN3CCNCC3c3ccccc32)cc1 (centres undefined) | > 10000
20 | CN1CCN2CC(c3ccc([N+](=O)[O-])cc3)c3ccc([N+](=O)[O-])cc3C2C1 (cis isomer) | > 10000
21 | CN1CCN2CC(c3ccc([N+](=O)[O-])cc3)c3ccccc3C2C1 (cis isomer) | 520
22 | CCNCC1NCC(c2ccccc2)c2ccccc21 (cis isomer) | 5000
23 | c1ccc(CN2CCN3CC(c4ccccc4)c4ccccc4C3C2)cc1 (centres undefined) | > 10000
24 | CCN1CCN2CC(c3ccccc3)c3ccccc3C2C1 (centres undefined) | 280
